Measured values taken from patent publication US7179921B2, “Indoline and tetrahydro-quinolines as prodrugs for tumour treatment” (School of Pharmacy, University of London, priority 2001, dated 2007).
Marks after values point to notes of the source that are not given here.

System: Chinese Hamster Ovary (CHO) cell
Assay: Cell culture based cytotoxicity measurement (MTT) with and without rat liver microsomal activation
Conditions: for IC50: Cricetulus griseus, CHO, cells incubated 24 hours, MTT, mean±sd, three experiments
Protocol: Test compound activation by CYP enzymes was carried out using NADPH supplemented rat liver microsomes. Incubation mixtures comprised microsomal protein (1 mg/ml), reduced-nicotinamide adenine dinucleotide phosphate (NADPH,10 mM) and phosphate buffer (pH7.4, 100 mM). Test compound (0.01–100 μM final concentration) in DMSO (20 μl ) was added to the microsomal incubation mixtures (0.5 ml) and incubated for 60 min at 37C. Control incubates contained test compound and microsomal incubation mixture terminated at 0 time. All incubations were terminated by addition of an equal volume of ice-cold acetonitrile and microfuged for 3 min. Aliquots of the supernatant were added to cells in culture.
Chinese Hamster Ovary (CHO) cell were grown in MEM supplemented with 10% dialysed FBS and G418 (400 μg/ml). All cells were seeded at an initial density of 1000 cells/well in 96-well-plates, incubation at 37° C. for 24 hours. Aliquots (0.1 ml) of the test compound/microsomal/acetonitrile supernatnant was then added to the CHO cells. Cells were then incubated for 24 hours at 37° C., 5% CO2. After this time period MTT (50 μl; 2 mg/ml stock solution) was added to each well and cells were incubated for a further 4 hours. During this time period MTT, a hydrogen acceptor tetrazolium salt, is reduced to formazan dye by mitochondrial dehydrogenase of viable cells. The media was aspirated from cells and DMSO (100 μl/well) added to solubilise the is coloured formazan dye. Absorbance of the formazan dye in the 96-well-plates was then determined at 550 nm. The effect of microsomal activation by the test compound on the arrest of CHO cell growth could be determined by comparing the IC50 (concentration that inhibited cell growth by 50%) with and without microsomal incubation.
Effect of compound 3.5 and its metabolism (activation) product on the survival of Chinese hamster ovary cells in culture. Cells were incubated for 24 hours with supernatants from reaction mixtures of compound 3.5 with NADPH fortified rat liver microsomes. […] Values are expressed as the mean±sd for three experiments. […]

In the case of COc1ccc2[nH]c(C(=O)N3CC(CCl)c4ccccc43)cc2c1 (stereo not drawn) [compound 3.5, 3-(Chloromethyl)-1--[(5-methoxyindol-2-yl)carbonyl]indoline], the “AF = activity factor, ratio of IC50 cytotoxicity values obtained for ± compound activation” value (CHO cells, IC50 −activation / IC50 +activation) is reported as 42.4*, the IC50 (control incubate terminated at 0 time (no microsomal activation)) is reported as 5.51 ± 0.23 µM and the IC50 (supernatant after 60 min incubation with NADPH supplemented rat liver microsomes) is reported as 0.13 ± 0.03 µM.
